Measured values reported in patent US20250332268A1, “CONJUGATE AND COMPOSITION AS WELL AS PREPARATION METHOD THEREFOR AND USE THEREOF” (priority 2022, published 2025).
Like-named read-outs stand apart in the source and are kept apart here. Non-standard residues stand in square brackets, D forms with d. Residues, ends and D or L forms follow the SMILES beside them. *: point of attachment. {Cy5} = Cy5 fluorescent dye; Dolaproine = CO[C@@H]([C@@H]1CCCN1)[C@@H](C)C(=O)O; Dil = CC[C@H](C)[C@H](NC)[C@@H](CC(=O)O)OC; X1 = C[C@@H](N*)[C@@H](O)c1ccccc1; NMeV = CN[C@H](C(=O)O)C(C)C

Tests used:
[1] = system: U118MG glioma cells subcutaneous tumor; test: In vivo anti-tumor activity, tumor volume (Experimental Example 3); design: species or system NOD-SCID mice
Protocol: In this experimental example, the in vivo anti-tumor activity of the resulting conjugate 20 in mice was investigated.
The mice in this experiment were purchased from SPF Co., Ltd, the germline was NOD-SCID, the grade was SPF, male, 6-8 weeks old; U118MG glioma cells were purchased from Jennio.
The above culture medium containing U118MG cells was inoculated on subcutaneous site of the right forelimb of mice, and the injection volume was 100 μL. Each mouse was inoculated with 1×10^7 U118MG glioma cells.
The above resulting conjugate AP2 was formulated into 1.94 mg/mL of solution with PBS. Conjugate 20 was formulated into 0.625 mg/mL, 1.25 mg/mL and 2.06 mg/mL of solution with PBS, respectively (all calculated based on the amount of oligonucleotide). […]
For test group 3d, the above conjugate 20 solution with a concentration of 0.625 mg/mL was administered by tail intravenous injection with a single administration volume of 10 μL/g, a single administration dosage of […] (calculated based on the mass of oligonucleotide), wherein the dosage of MMAE contained was equivalent to 0.3 mg/kg. […]
Long diameter and short diameter of the tumors were measured by in vitro measurement method. The tumor volume was calculated according to the formula ½(long diameter×short diameter^2). […]

[2] = system: U118MG subcutaneous tumor; test: In vivo activity of long-interval administration against U118MG subcutaneous tumor model mice (Experimental Example 7); design: species or system NOD-SCID mice; details: MMAE only, 0.1 mg/kg and 0.3 mg/kg subcutaneous on D8, D11, D15, D29, D32, D36
Protocol: According to the method of experimental example 2, 42 mice inoculated with U118MG subcutaneous tumor were obtained, and the mice were kept after injection.
MMAE was dissolved into solutions with a concentration of 0.03 mg/mL and 0.01 mg/mL with 10% DMSO+90% serum-free DMEM medium (volume ratio); conjugate 21 was dissolved into a solution with a concentration of 0.5 mg/mL and 0.165 mg/mL (calculated according to aptamer); and comparative conjugate 25 was dissolved into solutions with a concentration of 0.5 mg/mL and 0.165 mg/mL (calculated according to aptamer). […] The mice were weighed before administration, and the administration volume was calculated by weight.
For blank control group, each mouse was administered with DMEM medium with a single administration volume of 10 μL/g mouse body weight; For test group 7a, each mouse was administered with MMAE with a concentration of 0.01 mg/ml with a single administration volume of 10 μL/g mouse body weight. It was calculated that a single administration dosage was 0.1 mg/kg.
For test group 7b, each mouse was administered with conjugate 21 with a concentration of 0.165 mg/ml with a single administration volume of 10 μL/g mouse body weight. It was calculated that a single administration dosage was 1.65 mg/kg (the corresponding MMAE dosage was 0.1 mg/kg). […]

[3] = system: U118MG orthotopic tumor (brain glioma); details: mouse, in vivo, iv, 3 mg/kg
Protocol: (§1) U118MG human glioma cells (purchased from Guangzhou Jennio Biotech Co., Ltd) were cultured in DMEM complete medium (MACGENE company, Cat No. CM15019) supplemented with 10% fetal bovine serum (FBS, RMBIO company) at 37° C. in an incubator containing 5% CO2/95% air.
(§2) The cells were digested with 0.25% pancreatic enzyme and collected. The supernatant was aspirated, and the cells were resuspended in DMEM medium supplemented with 10% FBS to formulate into cell culture medium with a concentration of 4×10^7 cells/mL.
(§3) Experimental animals were 6 NOD-SCID mice, male, 12 weeks old (purchased from SPF (Beijing) Biotechnology Co., LTD.). The above cell culture medium was inoculated into NOD-SCID mice. […]
(§4) The administration dosage of all animals was calculated based on their body weights, the administration volume was all 10 μL/g, the administration dosage was 3 mg/kg per animal (calculated based on the amount of aptamer), 2 mice were administrated in each group and designated as test group 4a and control group 4b, respectively. […]
(§5) 24 h after administration, one mouse in each group was respectively killed and brain tissue was taken, and the remaining mice were killed at 48 h after administration and brain tissues were taken. The brain tissues of mice were taken for fluorescence imaging in IVIS Lumina Series III.

[4] = system: U118MG orthotopic tumor (brain glioma); test: In vivo distribution in U118MG cell orthotopic tumor model mice, brain fluorescence imaging (Experimental Example 4); details: 24 h and 48 h after administration; 3 mg/kg tail intravenous injection
Protocol: as §1, §2, §3, §4, §5

[5] = system: A549 subcutaneous tumor (human lung adenocarcinoma cells); test: In vivo activity against A549 subcutaneous tumor model mice (Experimental Example 9); details: administered D8, D12, D15, D19 (MMAE equivalent 0.3 mg/kg) and D46, D50, D54 (0.6 mg/kg); versus 9b (MMAE) and 9e (comparative conjugate 24)
Protocol: According to the method of experimental example 2, 30 mice inoculated with A549 subcutaneous tumors were obtained, and the mice were kept after injection.
Conjugate 20 and conjugate 21 were dissolved into conjugate solutions with a concentration of 1 mg/mL (calculated according to aptamer) with serum-free DMEM medium. Comparative conjugate 24 were dissolved into a conjugate solution with a concentration of 0.8 mg/mL (calculated according to aptamer). MMAE was dissolved into a solution with a concentration of 0.06 mg/mL with 10% DMSO+90% serum-free DMEM medium (volume ratio).
7 days after the inoculation of A549 human lung cancer cells, all mice were grouped, with 6 mice in each group, and each mouse was administrated. The day of administration was designated as D8. The mice were weighed before administration, and the administration volume was calculated by the mouse body weight. […]
For blank control group 9a, each mouse was administered with DMEM with a single administration volume of 5 μL/g mouse body weight; For control group 9b, each mouse was administered with MMAE with a single administration volume of 5 μL/g mouse body weight. It was calculated that a single administration dosage was 0.3 mg/kg; […]
Tumor volumes were measured on D1, D9, D16, D19, D22, D26, D30, D36, D40, D43, D47, D50, D54, and D57. The blank control group was measured on D50, and then the experiment was terminated. […]

## CC[C@H](C)[C@@H]([C@@H](CC(=O)N1CCC[C@H]1[C@H](OC)[C@@H](C)C(=O)N[C@H](C)[C@@H](O)c1ccccc1)OC)N(C)C(=O)[C@@H](NC(=O)[C@@H](NC)C(C)C)C(C)C [MMAE, Monomethyl auristatin E, reference compound] (H-[NMeV]V[Dil][Dolaproine]-X1)
[1]; control group 3c, 0.3 mg/kg tail intravenous injection on D8, D12, D16, D20
  increase rate of tumor volume: increase rate of tumor volume was decreased
[2]
  increase rates of tumor volume: slightly decreased

## CY5-CmUmGmGmAmGmUmUmCmAmGmAmCmGmUmGmUmUmGmCmUmCmUmUmCmCmGmAmUmCmUmCm (DNA CUGGAGUUCAGACGUGUUGCUCUUCCGAUCUC; all 2'-O-methyl, 5' {Cy5}, backbone not given here) [AP2]
[1]; control group 3b, 15.5 mg/kg tail intravenous injection on D8, D12, D16, D20
  tumor volume over time: increased rapidly
[3]
  fluorescence signal in brain tissue: strong fluorescence signals at the inoculation tumor location

## CY5-UfCfUfAUfGGCfUfGCfCfGAUfCfUfGGUfCfUfCfCfAUfGUfACfGUf (UCUAUGGCUGCCGAUCUGGUCUCCAUGUACGU; 2'-fluoro at CU, RNA at AG, 5' {Cy5}, backbone not given here) [Comparative AP19]
[4]
  fluorescence signal in brain tissue: no fluorescence signal at all in the brain

## MMAE-CmUmGmGmAmGmUmUmCmAmGmAmCmGmUmGmUmUmGmCmUmCmUmUmCmCmGmAmUmCmUmCm (DNA CUGGAGUUCAGACGUGUUGCUCUUCCGAUCUC; all 2'-O-methyl, backbone not given here; MMAE drug conjugated at 5' end via linker, further chemistry not fully specified) [Conjugate 20, dye group of AP2 replaced with MMAE; linking group 2-(phosphate ester group-(CH2)6—S—)-MC-Val-Cit-PAB]
[5]
  tumor volumes at each time period: smaller than those of the control groups 9b and 9e

## MMAE-CmUmGmGmAmGmUmUmCmAmGmAmCmGmUmUmGmUmGmCmUmCmUmUm (CUGGAGUUCAGACGUUGUGCUCUU; all 2'-O-methyl, backbone not given here; MMAE drug conjugated at 5' end via linker, further chemistry not fully specified) [Conjugate 21]
[5]
  tumor volumes at each time period: smaller than those of the control groups 9b and 9e
